Assay results taken from patent publication US4333930A, “Orthoarylideneaminophenethylamines and pharmaceutical compositions” (priority 1980, dated 1982).
Structures can show the parent of a compound that is named as a salt. Where two headings read alike, the source gives them in different places.

Key:
[1] = test system: number of escapes the animal made in 5 minutes; experiment: Escape test, Table 3; assay type: in vivo, mouse; conditions: oral, mouse, 5 minutes
Description: The products of the invention were always administered orally in 6% gum base.
The notation NS signifies that the difference between the results noted for the product and the results noted for the excipient alone is not significant at the threshold 0.05 according to the Student t Test.

[2] = test system: phenylbenzoquinone (PBQ); experiment: Analgesic activity using phenylbenzoquinone (PBQ) as noxious agent, Table 2; assay type: in vivo, male Swiss mouse; conditions: for inhibition in vivo at 100 mg/kg / inhibition in vivo at 200 mg/kg / inhibition in vivo at 50 mg/kg: Mus musculus
Description: The analgesic activity was determined with the male Swiss mouse using phenylbenzoquinone (PBQ) (a variation of the method of Siegmund et al, Proc. Soc. Exp. Med., […], 95, 729-31) as the noxious agent. Twenty-eightminutes after having administered the test products in a suspension in a 6% gum base, the PBQ solution was injected. The mice were then observed ca. 5 mn. for the next five minutes.
% of analgesic activity as a function of
the dose expressed in mg/kg

[3] = Oral toxicity (mortality) in the mouse, Table 1; assay type: in vivo; conditions: mouse, in vivo, po, Swiss mice, 14 days
Description: (§1) The mortality percentages caused by the products of the present invention administered orally to Swiss mice are shown in Table 1. The animals, free of specific pathological organism were housed in an air conditioned room from 24 to 48 hours before the start of the experiments. They were divided up into lots of 5 males and 5 females. With the animals unfed for 24 hours, the substances were administered intragastrically in a base of 6% gum arabic in a volume equal to 0.1 ml for 10 g of animal weight. The mortality was recorded at 14 days.
(§2) % of mortality as a function of the dose

[4] = test system: Swiss mice; experiment: Oral toxicity (mortality) in the mouse, Table 1; assay type: in vivo; conditions: 14 days, 20160 min
Description: as §1, §2

[5] = test system: number of displacements of the animal; experiment: Four plates test (anxiolytic activity), Table 5; assay type: in vivo; conditions: oral, mouse
Description: (§3) The psychotropic profile of the present invention products has been characterized with the animals in numerous tests some of whose results are shown hereinafter. The products of the invention were always administered orally in 6% gum base.
A certain number of products manifest an anxiolytic activity evidenced in the test with the four plates with the mouse (Table 5).
% of increase in the number of displacements of the
animal as a function of the dose expressed in mg/kg

[6] = test system: trembling induced by oxotremorine; experiment: Antagonism of trembling induced by oxotremorine, Table 7; assay type: in vivo; conditions: oral, read-out: % of inhibition of trembling induced by oxotremorine
Description: as §3
(§4) Certain tests made it possible to show antidepressive activities. These are tests of antagonism to the effects of reserpine, oxotremorine (according to Everett G. M. et al, Science, 1956, 124, 79 and Levy J. et al, Therapie 1965, 20, 265) and to despair (according to Porsolt P. D. et al, Eur. J. Pharmacol., 1978, 47, 379-91).
% of inhibition of trembling induced by
oxotremorine as a function of the dose
administered expressed in mg/kg

[7] = test system: ptosis induced by reserpine; experiment: Antagonism of ptosis induced by reserpine, Table 6; assay type: in vivo; conditions: oral, read-out: % of inhibition of ptosis induced by reserpine
Description: as §3, §4
% of inhibition of ptosis induced by reserpine
as a function of the dose administered orally

[8] = read-out: % of analgesic activity, 100 mg/kg, male Swiss mouse, PBQ
[9] = 50 mg/kg, male Swiss mouse, PBQ, read-out: % of analgesic activity
[10] = 100 mg/kg, male Swiss mouse, PBQ, read-out: % of analgesic activity
[11] = 200 mg/kg, male Swiss mouse, PBQ, read-out: % of analgesic activity
[12] = 50 mg/kg, male Swiss mouse, PBQ
[13] = read-out: % of analgesic activity, 50 mg/kg, male Swiss mouse, PBQ

2-(2-N,N-dimethylamino-1-methylethyl)-N-pyridylidene-3 aniline [COR 01 213]
% of activity (variation of the number of escapes) ([1]; 100 mg/kg): -20%

CC(=O)Oc1ccccc1C(=O)O [Acetylsalicyclic acid, reference compound]
inhibition in vivo at 100 mg/kg [2, 8]: 55% | inhibition in vivo at 200 mg/kg ([2]; read-out: % of analgesic activity, 200 mg/kg, male Swiss mouse, PBQ): 61%

CN(C)CCc1cc2c(cc1N=Cc1ccccc1C(=O)O)OCO2 [COR 01 142, N-6-(2-N,N-dimethylaminoethyl)-1,3-benzodioxol-5-yl-2-formimidoylbenzoic acid, internal salt]
inhibition in vivo at 50 mg/kg [2, 9]: 22% | inhibition in vivo at 100 mg/kg [2, 10]: 20% | inhibition in vivo at 200 mg/kg [2, 11]: 10% | mortality at 336 h ([3]; 1000 mg/kg): 0% | mortality at 336 h ([3]; 2000 mg/kg): 50%

CN(C)CCc1cc2c(cc1N=Cc1cccs1)OCO2 [COR 01 163]
% of analgesic activity [2, 12]: 17.5% | % of mortality ([4]; 150 mg/kg): 25% | % of mortality ([4]; 250 mg/kg): 70% | % of mortality ([4]; 500 mg/kg): 100%

Cc1ccc(C=Nc2cc3c(cc2CCN(C)C)OCO3)s1 [COR 01 169]
inhibition in vivo at 50 mg/kg [2, 13]: 7% | inhibition in vivo at 100 mg/kg [2, 8]: 43% | mortality at 336 h ([3]; 750 mg/kg): 50% | mortality at 336 h ([3]; 1000 mg/kg): 20% | mortality at 336 h ([3]; 1500 mg/kg): 80%

CN(C)CCc1cc2c(cc1N=Cc1cccs1)OCO2 [COR 01 171]
% of analgesic activity [2, 12]: 51% | % of mortality ([4]; 150 mg/kg): 20% | % of mortality ([4]; 250 mg/kg): 80% | % of mortality ([4]; 500 mg/kg): 90%

C(=Nc1cc2c(cc1CCN1CCCCC1)OCO2)c1cccs1 [COR 01 175, 6-(2-N-piperidinoethyl) N-(thienylidene-2)-1,3-benzodioxole-5-ylamine]
inhibition in vivo at 100 mg/kg [2, 10]: 13% | inhibition in vivo at 200 mg/kg [2, 11]: 71% | mortality at 336 h ([3]; 250 mg/kg): 0% | mortality at 336 h ([3]; 500 mg/kg): 10% | mortality at 336 h ([3]; 750 mg/kg): 10%

CN(C)CCc1cc2c(cc1N=Cc1cccs1)OCO2 [COR 01 179]
% of mortality ([4]; 250 mg/kg): 10% | % of mortality ([4]; 500 mg/kg): 90%

C(=Nc1cc2c(cc1CCN1CCOCC1)OCO2)c1cccs1 [COR 01 180]
% of increase in the number of displacements of the animal ([5]; 25 mg/kg): +69% | % of increase in the number of displacements of the animal ([5]; 50 mg/kg): +88% | % of increase in the number of displacements of the animal ([5]; 75 mg/kg): +35% | change in vivo at 50 mg/kg ([1]; 5 min, 50 mg/kg, read-out: % of activity (variation of the number of escapes)): -21% | change in vivo at 100 mg/kg ([1]; 5 min, 100 mg/kg, read-out: % of activity (variation of the number of escapes)): -37% | change in vivo at 200 mg/kg ([1]; 5 min, 200 mg/kg, read-out: % of activity (variation of the number of escapes)): -75% | inhibition in vivo at 50 mg/kg [2, 9]: 18% | inhibition in vivo at 100 mg/kg [2, 10]: 26% | inhibition in vivo at 200 mg/kg [2, 11]: 34% | change in vivo at 50 mg/kg ([6]; 50 mg/kg): -22% | change in vivo at 100 mg/kg ([6]; 100 mg/kg): -44% | change in vivo at 200 mg/kg ([6]; 200 mg/kg): -44% | change in vivo at 2.5 mg/kg ([7]; 2.5 mg/kg): -18% | change in vivo at 5 mg/kg ([7]; 5 mg/kg): -34% | change in vivo at 10 mg/kg ([7]; 10 mg/kg): -26% | change in vivo at 25 mg/kg ([7]; 25 mg/kg): -20% | mortality at 336 h ([3]; 500 mg/kg): 0% | mortality at 336 h ([3]; 1000 mg/kg): 70%

CN(C)CCc1cc2c(cc1N=Cc1ccc(Br)s1)OCO2 [COR 01 181]
inhibition in vivo at 50 mg/kg [2, 13]: 25% | inhibition in vivo at 100 mg/kg [2, 8]: 42% | mortality at 336 h ([3]; 250 mg/kg): 0% | mortality at 336 h ([3]; 500 mg/kg): 30%
